# Test results reported in patent publication US6737383B1, “Herbicidal oxadiazolidines” (priority 1999, dated 2004).
# What was measured:
# [1] = tested on: sugar beet; assay: Test B pre/postemergence sugar beet; assay type: in vivo, Beta vulgaris
# Summary of the method: (§1)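 Test chemicals in a non-phytotoxic solvent mixture with surfactant were sprayed preemergence onto planted seeds and postemergence onto plants 2 to 18 cm tall (1- to 4-leaf stage). After twelve to sixteen days in a greenhouse, injury was visually rated against untreated controls from 0 (no effect) to 10 (complete control).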
# [2] = tested on: soybean; assay: Test B pre/postemergence soybean; assay type: in vivo, Glycine max
# Summary of the method: as §1
# [3] = tested on: corn; assay: Test B pre/postemergence corn; assay type: in vivo, Zea mays
# Summary of the method: as §1
# [4] = tested on: rice; assay: Test B flood test rice; assay type: in vivo, Oryza sativa; conditions: Pre-emergence
# Summary of the method: (§2)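 Flood test on plants grown to the 2-leaf stage; treated plants kept in greenhouse twelve to sixteen days, then visually rated against controls on a 0 (no effect) to 10 (complete control) scale.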
# [5] = tested on: purple nutsedge; assay: Test B pre/postemergence purple nutsedge; assay type: in vivo, Cyperus rotundus
# Summary of the method: as §1
# [6] = tested on: crabgrass; assay: Test B pre/postemergence crabgrass; assay type: in vivo, Digitaria sanguinalis
# Summary of the method: as §1
# [7] = tested on: velvetleaf; assay: Test B pre/postemergence velvetleaf; assay type: in vivo, Abutilon theophrasti
# Summary of the method: as §1
# [8] = tested on: wheat; assay: Test B pre/postemergence wheat; assay type: in vivo, Triticum aestivum
# Summary of the method: as §1
# [9] = tested on: duck salad; assay: Test B flood test duck salad; assay type: in vivo, Heteranthera limosa; conditions: Pre-emergence
# Summary of the method: as §2
# [10] = tested on: surinam grass; assay: Test B pre/postemergence surinam grass; assay type: in vivo, Brachiaria decumbens
# Summary of the method: as §1
# [11] = tested on: rape; assay: Test B pre/postemergence rape; assay type: in vivo, Brassica napus
# Summary of the method: as §1
# [12] = tested on: blackgrass; assay: Test B pre/postemergence blackgrass; assay type: in vivo, Alopecurus myosuroides
# Summary of the method: as §1
# [13] = tested on: wild oat; assay: Test B pre/postemergence wild oat; assay type: in vivo, Avena fatua
# Summary of the method: as §1
# [14] = tested on: smallflower flatsedge; assay: Test B flood test smallflower flatsedge; assay type: in vivo, Cyperus difformis; conditions: Pre-emergence
# Summary of the method: as §2
# [15] = tested on: bedstraw; assay: Test B pre/postemergence bedstraw; assay type: in vivo, Galium aparine
# Summary of the method: as §1
# [16] = tested on: pigweed; assay: Test B pre/postemergence pigweed; assay type: in vivo, Amaranthus retroflexus
# Summary of the method: as §1
# [17] = Postemergence, Rate 125 g/ha, scale 0 to 10, 0 is no effect, 10 is complete control
# [18] = Preemergence, Rate 62 g/ha, scale of 0 to 10 where 0 is no effect and 10 is complete control
# [19] = Preemergence, Rate 250 g/ha, scale of 0 to 10 where 0 is no effect and 10 is complete control
# [20] = Preemergence, Rate 500 g/ha, scale of 0 to 10 where 0 is no effect and 10 is complete control
# [21] = Rate 62 g/ha, Postemergence, scale 0 to 10, 0 no effect, 10 complete control
# [22] = Rate 500 g/ha, Postemergence, scale 0 to 10, 0 no effect, 10 complete control
# [23] = Rate 1000 g/ha, scale 0 to 10 (0 no effect, 10 complete control)
# [24] = Rate 125 g/ha, flood test species, scale 0 to 10 where 0 is no effect and 10 is complete control
# [25] = Rate 250 g/ha, flood-test species, scale 0 to 10, 0 is no effect, 10 is complete control
# [26] = Rate 500 g/ha, flood test species, scale 0 to 10 (0 no effect, 10 complete control)
# [27] = Rate 250 g/ha, Postemergence, scale of 0 to 10 where 0 is no effect and 10 is complete control
smiles,measurement,setting,value
CC(C)N(C(=O)n1oc(=O)n(-c2ccc3ccccc3c2)c1=O)c1ccccc1 [Compound 332],"Plant response rating, Sugarbeets",[1]; [17],0
same,Sugarbeets plant response rating,[1]; [18],0
same,Sugarbeets plant response rating (0 to 10 scale),"[1]; Preemergence, Rate 125 g/ha",0
same,Sugarbeets plant response rating,[1]; [19],0
same,Sugarbeets plant response rating,[1]; [20],0
same,Sugarbeets plant response rating,[1]; [21],0
same,"Plant response rating, Sugarbeets",[1]; [22],0
same,"Plant response rating, Soybean",[2]; [17],2
same,Soybean plant response rating,[2]; [18],0
same,Soybean plant response rating (0 to 10 scale),"[2]; Preemergence, Rate 125 g/ha",0
same,Soybean plant response rating,[2]; [19],0
same,Soybean plant response rating,[2]; [20],0
same,Soybean plant response rating,[2]; [21],2
same,"Plant response rating, Soybean",[2]; [22],3
same,"Plant response rating, Corn",[3]; [17],0
same,Corn plant response rating,[3]; [18],0
same,Corn plant response rating (0 to 10 scale),"[3]; Preemergence, Rate 125 g/ha",0
same,Corn plant response rating,[3]; [19],0
same,Corn plant response rating,[3]; [20],0
same,Corn plant response rating,[3]; [21],0
same,"Plant response rating, Corn",[3]; [22],0
same,Rice plant response rating,[4]; [23],0
same,Rice plant response rating,[4]; [24],0
same,Rice plant response rating,[4]; [25],0
same,Rice plant response rating,[4]; [26],0
same,"Plant response rating, Nutsedge",[5]; [17],0
same,Nutsedge plant response rating,[5]; [18],0
same,Nutsedge plant response rating (0 to 10 scale),"[5]; Preemergence, Rate 125 g/ha",0
same,Nutsedge plant response rating,[5]; [19],0
same,Nutsedge plant response rating,[5]; [20],0
same,Nutsedge plant response rating,[5]; [21],0
same,"Plant response rating, Nutsedge",[5]; [22],0
same,"Plant response rating, Crabgrass",[6]; [17],1
same,Crabgrass plant response rating,[6]; [18],0
same,Crabgrass plant response rating (0 to 10 scale),"[6]; Preemergence, Rate 125 g/ha",0
same,Crabgrass plant response rating,[6]; [19],3
same,Crabgrass plant response rating,[6]; [20],5
same,Crabgrass plant response rating,[6]; [21],0
same,"Plant response rating, Crabgrass",[6]; [22],3
same,"Plant response rating, Velvetleaf",[7]; [17],0
same,Velvetleaf plant response rating,[7]; [18],0
same,Velvetleaf plant response rating (0 to 10 scale),"[7]; Preemergence, Rate 125 g/ha",0
same,Velvetleaf plant response rating,[7]; [19],0
same,Velvetleaf plant response rating,[7]; [20],0
same,Velvetleaf plant response rating,[7]; [21],0
same,"Plant response rating, Velvetleaf",[7]; [22],0
same,"Plant response rating, Wheat",[8]; [17],0
same,Wheat plant response rating,[8]; [18],0
same,Wheat plant response rating (0 to 10 scale),"[8]; Preemergence, Rate 125 g/ha",0
same,Wheat plant response rating,[8]; [19],0
same,Wheat plant response rating,[8]; [20],0
same,Wheat plant response rating,[8]; [21],0
same,"Plant response rating, Wheat",[8]; [22],0
same,Ducksalad plant response rating,[9]; [23],0
same,Ducksalad plant response rating,[9]; [24],0
same,Ducksalad plant response rating,[9]; [25],0
same,Ducksalad plant response rating,[9]; [26],0
same,"Plant response rating, B. signalgrass",[10]; [17],0
same,B. signalgrass plant response rating,[10]; [18],0
same,"B. signalgrass plant response rating (0 to 10 scale, 0 is no effect, 10 is complete control)","[10]; Preemergence, Rate 125 g/ha",0
same,B. signalgrass plant response rating,[10]; [19],0
same,B. signalgrass plant response rating,[10]; [20],0
same,B. signalgrass plant response rating,[10]; [21],0
same,"Plant response rating, B. signalgrass",[10]; [27],0
same,"Plant response rating, B. signalgrass",[10]; [22],0
same,"Plant response rating, Rape",[11]; [17],0
same,Rape plant response rating,[11]; [18],0
same,Rape plant response rating (0 to 10 scale),"[11]; Preemergence, Rate 125 g/ha",0
same,Rape plant response rating,[11]; [19],0
same,Rape plant response rating,[11]; [20],0
same,Rape plant response rating,[11]; [21],0
same,"Plant response rating, Rape",[11]; [22],0
same,"Plant response rating, Blackgrass",[12]; [17],0
same,Blackgrass plant response rating,[12]; [18],0
same,Blackgrass plant response rating (0 to 10 scale),"[12]; Preemergence, Rate 125 g/ha",0
same,Blackgrass plant response rating,[12]; [19],0
same,Blackgrass plant response rating,[12]; [20],0
same,Blackgrass plant response rating,[12]; [21],0
same,"Plant response rating, Blackgrass",[12]; [27],0
same,"Plant response rating, Blackgrass",[12]; [22],0
same,"Plant response rating, Wild oats",[13]; [17],0
same,Wild oats plant response rating,[13]; [18],0
same,Wild oats plant response rating (0 to 10 scale),"[13]; Preemergence, Rate 125 g/ha",0
same,Wild oats plant response rating,[13]; [19],0
same,Wild oats plant response rating,[13]; [20],0
same,Wild oats plant response rating,[13]; [21],0
same,"Plant response rating, Wild oats",[13]; [22],0
same,S. Flatsedge plant response rating,[14]; [23],0
same,S. Flatsedge plant response rating,[14]; [24],0
same,S. Flatsedge plant response rating,[14]; [25],0
same,S. Flatsedge plant response rating,[14]; [26],0
same,"Plant response rating, Bedstraw",[15]; [17],0
same,Bedstraw plant response rating,[15]; [18],0
same,Bedstraw plant response rating (0 to 10 scale),"[15]; Preemergence, Rate 125 g/ha",0
same,Bedstraw plant response rating,[15]; [19],0
same,Bedstraw plant response rating,[15]; [21],0
same,"Plant response rating, Bedstraw",[15]; [27],0
same,"Plant response rating, Redroot pigweed",[16]; [17],1
same,Redroot pigweed plant response rating,[16]; [18],0
same,Redroot pigweed plant response rating (0 to 10 scale),"[16]; Preemergence, Rate 125 g/ha",0
same,Redroot pigweed plant response rating,[16]; [19],0
same,Redroot pigweed plant response rating,[16]; [20],3
same,Redroot pigweed plant response rating,[16]; [21],0
same,"Plant response rating, Redroot pigweed",[16]; [22],4
